Target: T1, Tyrosine-protein phosphatase non-receptor type 1 (Homo sapiens, UniProt P18031)
T1 sequence (P18031 whole entry): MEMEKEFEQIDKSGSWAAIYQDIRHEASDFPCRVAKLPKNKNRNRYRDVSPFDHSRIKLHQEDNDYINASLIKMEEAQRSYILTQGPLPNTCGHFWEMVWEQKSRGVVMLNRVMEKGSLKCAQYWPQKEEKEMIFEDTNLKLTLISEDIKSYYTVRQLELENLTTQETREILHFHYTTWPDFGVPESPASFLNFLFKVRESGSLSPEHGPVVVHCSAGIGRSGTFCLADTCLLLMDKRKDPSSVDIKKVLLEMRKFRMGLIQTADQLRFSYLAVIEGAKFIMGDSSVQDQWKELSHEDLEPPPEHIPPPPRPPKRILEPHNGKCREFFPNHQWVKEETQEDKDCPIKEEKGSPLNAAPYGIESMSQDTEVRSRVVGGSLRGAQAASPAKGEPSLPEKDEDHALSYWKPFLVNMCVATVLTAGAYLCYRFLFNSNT
Experiment: Inhibition of human recombinant PTP1B

IC50 | SMILES
19.2 µM | COc1cc([C@@H]2CC(=O)c3ccc(O)cc3O2)cc(CC=C(C)C)c1O
26.7 µM | CC(C)=CCc1cc(-c2cc(=O)c3c(O)cc(O)cc3o2)ccc1O
17.3 µM | COc1cc([C@@H]2CC(=O)c3c(O)cc(O)cc3O2)cc(CC=C(C)C)c1O [ABYSSININ II]
18.2 µM | COc1cc(C2CC(=O)c3c(O)cc(O)cc3O2)cc2c1OC(C)(C)C=C2 (stereo not drawn) [ABYSSININ I]
15.7 µM | C=C(C)C(O)Cc1cc([C@@H]2CC(=O)c3c(O)cc(O)cc3O2)cc(CC=C(C)C)c1O (stereo partly drawn) [ABYSSINOFLAVANONE VII]
18.9 µM | CC(C)=CCc1cc([C@@H]2CC(=O)c3c(O)cc(O)cc3O2)cc2ccoc12 [ABYSSINOFLAVANONE VI]
> 60 µM | CC1(C)C=Cc2cc([C@@H]3CC(=O)c4c(O)cc(O)cc4O3)ccc2O1 [ABYSSINOFLAVONE V]
20.6 µM | CC(C)=CCc1cc(/C=C/C(=O)c2ccc(O)cc2O)cc(CC=C(C)C)c1O [ABYSSINONE VI]
16.9 µM | CC(C)=CCc1cc(/C=C/C(=O)c2ccc(O)cc2O)ccc1O [LICOAGROCHALCONE A]
14.4 µM | CC(C)=CCc1cc([C@@H]2CC(=O)c3c(O)cc(O)cc3O2)c(CC=C(C)C)c(O)c1O [SIGMOIDIN A]
19.4 µM | CC(C)=CCc1cc([C@@H]2CC(=O)c3c(O)cc(O)cc3O2)cc(O)c1O [SIGMOIDIN B]
> 60 µM | CC1(C)C=Cc2cc([C@@H]3CC(=O)c4c(O)cc(O)cc4O3)cc(O)c2O1 [SIGMOIDIN C]
14.2 µM | CC(C)=CCc1c([C@H]2CC(=O)c3c(O)cc(O)cc3O2)cc2c(c1O)OC(C)(C)C=C2 [SIGMOIDIN F]

Reference: ChEMBL document CHEMBL1143674, “Isoprenylated flavonoids from the stem bark of Erythrina abyssinica” (J Nat Prod, 2007)
